From patent US10072282B2, “Modulators for SIRT6 and assays for screening same” (Cornell University, priority 2010, dated 2018)

Legend:
PfSir2a = PfSir2a (Plasmodium falciparum, UniProt Q8IE47); assay: Fluorogenic acyl peptide-AMC assay with PfSir2a; assay type: biochemical; settings: AMC released by trypsin, fluorescence
Source text: (§1) FIGS. 6A, 6B. Charts showing the difference between fluorogenic acetyl peptide-AMC substrate (A) and heptyl peptide-AMC substrate (B) detection ability of Sirt6 and PfSir2 activity.
(§2) With respect to the first reaction (deacylation by Sirt6, PfSir2a, or Sirt7), the pH for the reaction can be selected by taking the optimal pH of Sirt6, PfSir2a, or Sirt7 into consideration. The pH is typically adjusted to a pH of 6.0 to 8.5, or more particularly, a pH of 6.8 to 8.5. The reaction buffer preferably provides the above-mentioned pH. For example, Tris-HCl, HEPES-KOH, and other such buffers may be used in the instant method. More specifically, for example, 20 mM Tris-HCl having a pH of 7.4 can be used. Generally, NAD is a co-substrate required for Sirt6, PfSir2a, or Sirt7 functioning, and is typically used at about 0.5 mM concentration. Salts and preservatives are generally also included in the reaction solution. […]
(§3) For sirtuins with robust deacetylase activity, a fluorogenic assay has been used to detect the activity and screen for inhibitors/activators (FIG. 5, top). […] After a sirtuin removes the acetyl group, the AMC can be released by trysin, which produces a fluorescence signal. Thus, the presence of a compound that can change the activity of sirtuin being analyzed can be detected by monitoring the fluoroscence released in the reaction. […]

Sirt6 = Sirt6 (Homo sapiens, UniProt Q8N6T7); assay: Fluorogenic acyl peptide-AMC assay with Sirt6; assay type: biochemical; settings: AMC released by trypsin, fluorescence
Sirt6, sequence (Q8N6T7 whole entry): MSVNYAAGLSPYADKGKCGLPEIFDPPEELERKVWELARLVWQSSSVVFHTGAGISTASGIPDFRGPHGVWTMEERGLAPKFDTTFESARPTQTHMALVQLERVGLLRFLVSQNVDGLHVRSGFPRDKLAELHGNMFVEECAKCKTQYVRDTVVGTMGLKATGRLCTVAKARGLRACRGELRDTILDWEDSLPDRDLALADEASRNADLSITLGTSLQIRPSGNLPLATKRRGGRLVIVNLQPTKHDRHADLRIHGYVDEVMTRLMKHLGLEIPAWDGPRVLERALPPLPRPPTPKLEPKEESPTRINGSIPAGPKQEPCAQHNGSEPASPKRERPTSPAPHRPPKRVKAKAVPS
Source text: as §1, §2, §3

PfSir2a, sequence (Q8IE47 whole entry): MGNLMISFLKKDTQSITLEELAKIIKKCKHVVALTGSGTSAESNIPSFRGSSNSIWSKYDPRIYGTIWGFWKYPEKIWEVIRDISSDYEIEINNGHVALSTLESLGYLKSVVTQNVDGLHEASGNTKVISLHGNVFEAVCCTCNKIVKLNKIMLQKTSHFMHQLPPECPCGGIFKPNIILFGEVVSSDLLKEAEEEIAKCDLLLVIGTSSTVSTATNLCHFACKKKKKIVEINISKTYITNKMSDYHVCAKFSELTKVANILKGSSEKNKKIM

| Substance | detection of PfSir2a activity with peptide-AMC substrate (PfSir2a) | detection of Sirt6 activity with peptide-AMC substrate (Sirt6) |
| --- | --- | --- |
| ISGASE(acetyl-K)-AMC peptide [acetyl peptide-AMC] | not detectable | not detectable |
| ISGASE(heptanoyl-K)-AMC peptide [heptanoyl peptide-AMC] | can be used to detect the activity of Sirt6 and PfSir2a | can be used to detect the activity of Sirt6 and PfSir2a |
